ChEMBL document CHEMBL3525908, “Chronic doxorubicin cardiotoxicity modulates cardiac cytochrome P450-mediated arachidonic acid metabolism in rats” (Drug Metab Dispos, 2012)

How the values were obtained:
Rattus norvegicus [1] = test: Toxicity in Sprague-Dawley rat assessed as induction of TNF-alpha gene expression in kidney administered as cumulative dose of 15 mg/kg, ip divided into 6 injections for 2 weeks followed by compound washout period of 14 days by RT-PCR analysis relative to control; type: organism-based; design: dose 15 mg/kg, route intraperitoneal; conditions: 336 h
CYP2J3 = test: Toxicity in Sprague-Dawley rat assessed as induction of CYP2J3 gene expression in kidney administered as cumulative dose of 15 mg/kg, ip divided into 6 injections for 2 weeks followed by compound washout period of 14 days by RT-PCR analysis relative to control; type: organism-based; design: dose 15 mg/kg, route intraperitoneal
Rattus norvegicus [2] = test: Toxicity in Sprague-Dawley rat assessed as CYP1A1 gene expression in kidney administered as cumulative dose of 15 mg/kg, ip divided into 6 injections for 2 weeks followed by compound washout period of 14 days by RT-PCR analysis relative to control; type: organism-based; design: dose 15 mg/kg, route intraperitoneal; conditions: in vivo, 336 h
Rattus norvegicus [3] = test: Toxicity in Sprague-Dawley rat assessed as CYP2C11 gene expression in kidney administered as cumulative dose of 15 mg/kg, ip divided into 6 injections for 2 weeks followed by compound washout period of 14 days by RT-PCR analysis relative to control; type: organism-based; design: dose 15 mg/kg, route intraperitoneal; conditions: in vivo, 336 h
Rattus norvegicus [4] = test: Toxicity in Sprague-Dawley rat assessed as CYP4F4 gene expression in kidney administered as cumulative dose of 15 mg/kg, ip divided into 6 injections for 2 weeks followed by compound washout period of 14 days by RT-PCR analysis relative to control; type: organism-based; design: dose 15 mg/kg, route intraperitoneal; conditions: in vivo, 336 h
Rattus norvegicus [5] = test: Induction of […]-mediated arachidonic acid metabolism in Sprague-Dawley rat heart microsomes assessed as 20-HETE formation administered as cumulative dose of 15 mg/kg, ip divided into 6 injections for 2 weeks followed by compound washout period of 14 days by LC-ESI-MS analysis relative to control; type: ADME, organism-based; design: dose 15 mg/kg, route intraperitoneal; conditions: 336 h
Rattus norvegicus [6] = test: Cardiotoxicity in Sprague-Dawley rat assessed as increase in sEH activity in heart microsomes administered as cumulative dose of 15 mg/kg, ip divided into 6 injections for 2 weeks followed by compound washout period of 14 days by RT-PCR analysis relative to control; type: toxicity, organism-based; design: dose 15 mg/kg, route intraperitoneal; conditions: 336 h
Rattus norvegicus [7] = test: Cardiotoxicity in Sprague-Dawley rat assessed as increase in sEH activity in heart cytosol administered as cumulative dose of 15 mg/kg, ip divided into 6 injections for 2 weeks followed by compound washout period of 14 days by RT-PCR analysis relative to control; type: toxicity, organism-based; design: dose 15 mg/kg, route intraperitoneal; conditions: 336 h
H9c2 = test: Cytotoxicity against rat H9c2 cells assessed as reduction in ANP mRNA expression at 1 uM after 6 hrs in presence of t-AUCB; type: cell-based; conditions: h9c2, 6 h
Rattus norvegicus [8] = test: Cardiotoxicity in Sprague-Dawley rat assessed as increase in CYP4F4 gene expression level administered as cumulative dose of 15 mg/kg, ip divided into 6 injections for 2 weeks followed by compound washout period of 14 days by RT-PCR analysis relative to control; type: toxicity, organism-based; design: dose 15 mg/kg, route intraperitoneal; conditions: in vivo, 336 h
Rattus norvegicus [9] = test: Induction of CYP450-mediated arachidonic acid metabolism in Sprague-Dawley rat heart microsomes assessed as 5,6-EET formation administered as cumulative dose of 15 mg/kg, ip divided into 6 injections for 2 weeks followed by compound washout period of 14 days by LC-ESI-MS analysis relative to control; type: ADME, organism-based; design: dose 15 mg/kg, route intraperitoneal; conditions: 336 h
Rattus norvegicus [10] = test: Induction of CYP450-mediated arachidonic acid metabolism in Sprague-Dawley rat heart microsomes assessed as 14,15-EET formation administered as cumulative dose of 15 mg/kg, ip divided into 6 injections for 2 weeks followed by compound washout period of 14 days by LC-ESI-MS analysis relative to control; type: ADME, organism-based; design: dose 15 mg/kg, route intraperitoneal; conditions: 336 h
Rattus norvegicus [11] = test: Induction of epoxygenase-mediated arachidonic acid metabolism in Sprague-Dawley rat heart microsomes assessed as EET/DHET formation administered as cumulative dose of 15 mg/kg, ip divided into 6 injections for 2 weeks followed by compound washout period of 14 days by LC-ESI-MS analysis relative to control; type: ADME, organism-based; design: dose 15 mg/kg, route intraperitoneal; conditions: 336 h
Rattus norvegicus [12] = test: Toxicity in Sprague-Dawley rat assessed as induction of TNF-alpha gene expression in liver administered as cumulative dose of 15 mg/kg, ip divided into 6 injections for 2 weeks followed by compound washout period of 14 days by RT-PCR analysis relative to control; type: organism-based; design: dose 15 mg/kg, route intraperitoneal; conditions: 336 h
CYP1A1 = test: Toxicity in Sprague-Dawley rat assessed as induction of CYP1A1 gene expression in liver administered as cumulative dose of 15 mg/kg, ip divided into 6 injections for 2 weeks followed by compound washout period of 14 days by RT-PCR analysis relative to control; type: organism-based; design: dose 15 mg/kg, route intraperitoneal
CYP1A2 = test: Toxicity in Sprague-Dawley rat assessed as induction of CYP1A2 gene expression in liver administered as cumulative dose of 15 mg/kg, ip divided into 6 injections for 2 weeks followed by compound washout period of 14 days by RT-PCR analysis relative to control; type: organism-based; design: dose 15 mg/kg, route intraperitoneal
CYP1B1 = test: Toxicity in Sprague-Dawley rat assessed as induction of CYP1B1 gene expression in liver administered as cumulative dose of 15 mg/kg, ip divided into 6 injections for 2 weeks followed by compound washout period of 14 days by RT-PCR analysis relative to control; type: organism-based; design: dose 15 mg/kg, route intraperitoneal
Rattus norvegicus [13] = test: Toxicity in Sprague-Dawley rat assessed as CYP2E1 gene expression in liver administered as cumulative dose of 15 mg/kg, ip divided into 6 injections for 2 weeks followed by compound washout period of 14 days by RT-PCR analysis relative to control; type: organism-based; design: dose 15 mg/kg, route intraperitoneal; conditions: in vivo, 336 h
CYP2E1 = test: Cardiotoxicity in Sprague-Dawley rat assessed as increase in CYP2E1 gene expression level administered as cumulative dose of 15 mg/kg, ip divided into 6 injections for 2 weeks followed by compound washout period of 14 days by RT-PCR analysis relative to control; type: toxicity, organism-based; design: dose 15 mg/kg, route intraperitoneal; conditions: heart
Rattus norvegicus [14] = test: Cardiotoxicity in Sprague-Dawley rat assessed as increase in IL-6 gene expression level administered as cumulative dose of 15 mg/kg, ip divided into 6 injections for 2 weeks followed by compound washout period of 14 days by RT-PCR analysis relative to control; type: toxicity, organism-based; design: dose 15 mg/kg, route intraperitoneal; conditions: in vivo, 336 h
Rattus norvegicus [15] = test: Cardiotoxicity in Sprague-Dawley rat assessed as increase in alpha-MHC gene expression level administered as cumulative dose of 15 mg/kg, ip divided into 6 injections for 2 weeks followed by compound washout period of 14 days by RT-PCR analysis relative to control; type: toxicity, organism-based; design: dose 15 mg/kg, route intraperitoneal; conditions: in vivo, 336 h
Rattus norvegicus [16] = test: Cardiotoxicity in Sprague-Dawley rat assessed as increase in CYP1B1 gene expression level administered as cumulative dose of 15 mg/kg, ip divided into 6 injections for 2 weeks followed by compound washout period of 14 days by RT-PCR analysis relative to control; type: toxicity, organism-based; design: dose 15 mg/kg, route intraperitoneal; conditions: in vivo, 336 h
Rattus norvegicus [17] = test: Cardiotoxicity in Sprague-Dawley rat assessed as increase in CYP2C11 gene expression level administered as cumulative dose of 15 mg/kg, ip divided into 6 injections for 2 weeks followed by compound washout period of 14 days by RT-PCR analysis relative to control; type: toxicity, organism-based; design: dose 15 mg/kg, route intraperitoneal; conditions: in vivo, 336 h
CYP4A3 = test: Cardiotoxicity in Sprague-Dawley rat assessed as increase in CYP4A3 gene expression level administered as cumulative dose of 15 mg/kg, ip divided into 6 injections for 2 weeks followed by compound washout period of 14 days by RT-PCR analysis relative to control; type: toxicity, organism-based; design: dose 15 mg/kg, route intraperitoneal; conditions: heart
CYP4F1 = test: Cardiotoxicity in Sprague-Dawley rat assessed as increase in CYP4F1 gene expression level administered as cumulative dose of 15 mg/kg, ip divided into 6 injections for 2 weeks followed by compound washout period of 14 days by RT-PCR analysis relative to control; type: toxicity, organism-based; design: dose 15 mg/kg, route intraperitoneal; conditions: heart

SMILES: COc1cccc2c1C(=O)c1c(O)c3c(c(O)c1C2=O)C[C@@](O)(C(=O)CO)C[C@@H]3O[C@H]1C[C@H](N)[C@H](O)[C@H](C)O1 [DOXORUBICIN]
- fold induction at 15 mg/kg (Rattus norvegicus [1]): 2.9
- fold induction at 336 h (CYP2J3): 1.6
- Activity (Rattus norvegicus [2]): Non-toxic
- Activity (Rattus norvegicus [3]): Non-toxic
- Activity (Rattus norvegicus [4]): Non-toxic
- Activity (Rattus norvegicus [5]): Toxic
- Ratio (Rattus norvegicus [6]): 1.6
- Ratio (Rattus norvegicus [7]): 1.3
- Activity (H9c2): Toxic
- Activity (Rattus norvegicus [8]): Non-toxic
- Activity (Rattus norvegicus [9]): Active
- Activity (Rattus norvegicus [10]): Active
- Activity (Rattus norvegicus [11]): Toxic
- fold induction at 15 mg/kg (Rattus norvegicus [12]): 2.2
- fold induction at 336 h (CYP1A1): 2.8
- fold induction at 336 h (CYP1A2): 1.9
- fold induction at 336 h (CYP1B1): 2.5
- Activity (Rattus norvegicus [13]): Non-toxic
- fold induction at 336 h (CYP2E1): 1.8
- Ratio (Rattus norvegicus [14]): 1.8
- Ratio (Rattus norvegicus [15]): 1.6
- Activity (Rattus norvegicus [16]): Non-toxic
- Activity (Rattus norvegicus [17]): Non-toxic
- fold induction at 336 h (CYP4A3): 2
- fold induction at 336 h (CYP4F1): 1.6
